Data from patent publication US8575091B1, “Amylin analogues and pharmaceutical compositions thereof” (Novo Nordisk A/S, priority 2012, dated 2013).
Numbered stars: 1 amine (or outer) side, 2 acyl side, 3 side chain; on linkers, the order of the positions; unused ones are H or OH. Bridge positions count the residues as written; N and C are the ends. Side chains are listed from the residue outwards. Peptide text beside a SMILES is read from it. * marks the point of attachment. C20 diacid = O=C(O)CCCCCCCCCCCCCCCCCCC(=O)*; γGlu = O=C(O)[C@H](CCC(=O)[*:2])N[*:1]; AEEA = NCCOCCOCC(=O)O

How the values were obtained:
[1] = Assay (III) ThT fibrillation assay for physical stability; type: physicochemical
From the text: Assay (III)—ThT Fibrillation Assays for the Assessment of Physical Stability of Protein Formulations Low physical stability of a polypeptide may lead to amyloid fibril formation, which is observed as well-ordered, thread-like macromolecular structures in the sample eventually resulting in gel formation. This has traditionally been measured by visual inspection of the sample. However, that kind of measurement is very subjective and depending on the observer. Therefore, the application of a small molecule indicator probe is much more advantageous. Thioflavin T (ThT) is such a probe and has a distinct fluorescence signature when binding to fibrils [Naiki et al. (1989) Anal. […] LeVine (1999) Methods. Enzymol. […], 274-284]. The time course for fibril formation can be described by a sigmoidal curve with the following expression [Nielsen et al. (2001) Biochemistry 40, 6036-6046]: […] Here, F is the ThT fluorescence at the time t. The constant t0 is the time needed to reach 50% of maximum fluorescence. […] Incubation and Fluorescence Measurement Incubation at given temperature, shaking and measurement of the ThT fluorescence emission were done in a Fluoroskan Ascent FL fluorescence platereader or Varioskan platereader (Thermo Labsystems). […] Fluorescence measurement was done using excitation through a 444 nm filter and measurement of emission through a 485 nm filter. […] The plate was measured every 20 minutes for a desired period of time. […] However, since full sigmodial curves in this case are not always achieved during the measurement time, the degree of fibrillation is expressed as ThT fluorescence tabulated as the mean of the samples and shown with the standard deviation at various time points. Measurement of Initial and Final Concentrations The polypeptide concentration in each of the tested formulations were measured both before application in the ThT fibrillation assay (“Initial”) and after completion of the ThT fibrillation (“After ThT assay”). Concentrations were determined by reverse HPLC methods using a pramlintide standard as a reference. […]

[2] = molecular target: T1, human amylin receptor (amylin 3(a) receptor: human calcitonin receptor + RAMP-3) (Homo sapiens, UniProt O60896+P30988); assay: Assay (II)a functional assay, human amylin receptor (CRE luciferase, BHK cells); type: cell-based
T1 construct: expressed in transfected cells
T1 sequence (P30988 25-474): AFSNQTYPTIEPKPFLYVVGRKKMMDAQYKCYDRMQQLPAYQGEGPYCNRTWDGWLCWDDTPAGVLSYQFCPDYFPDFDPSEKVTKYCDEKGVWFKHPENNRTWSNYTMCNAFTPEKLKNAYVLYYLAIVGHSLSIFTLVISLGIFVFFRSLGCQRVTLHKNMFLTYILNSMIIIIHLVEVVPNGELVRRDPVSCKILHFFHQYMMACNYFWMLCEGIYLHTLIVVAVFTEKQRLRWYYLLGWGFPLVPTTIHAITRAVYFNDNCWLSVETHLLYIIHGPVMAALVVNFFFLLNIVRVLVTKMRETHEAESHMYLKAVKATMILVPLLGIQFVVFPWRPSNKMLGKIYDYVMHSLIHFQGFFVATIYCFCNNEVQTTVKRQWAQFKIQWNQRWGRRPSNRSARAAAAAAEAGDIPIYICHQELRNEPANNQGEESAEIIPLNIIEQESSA
T1 sequence (O60896 24-148 partner): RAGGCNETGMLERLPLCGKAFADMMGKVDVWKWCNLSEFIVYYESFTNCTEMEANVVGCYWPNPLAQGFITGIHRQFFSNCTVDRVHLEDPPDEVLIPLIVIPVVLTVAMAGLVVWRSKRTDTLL

Wistar rats = assay: Assay (XII) single subcutaneous administration, plasma calcium in rats; type: in vivo, rat; conditions: 30 nmol/kg
Summary of the method: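 Male Wistar rats (~250 g), groups of five, received a single subcutaneous dose at time 0. Blood drawn at −15 min, 1, 2, 4, 7, 12 and 24 h; total calcium measured in heparin plasma, reported as mean±SEM.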

human amylin receptor = molecular target: T2, human amylin receptor (Homo sapiens, UniProt O60896+P30988); assay: Assay (V) binding to the human amylin receptor (SPA, 125I-rat amylin); conditions: human amylin receptor membranes, SPA; read-out: hAmylin-R bind IC50
T2 construct: expressed in transfected cells
T2 sequence (P30988 25-474): T1 sequence (P30988 25-474)
T2 sequence (O60896 24-148 partner): T1 sequence (O60896 24-148 partner)
Summary of the method: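 SPA competition binding on membranes from Amylin 3(a)/CRE-luc cells, 35 ng/μL membranes with 0.05 mg/well beads. Buffer 50 mM Hepes pH 7.4, 1 mM CaCl2, 5 mM MgCl2, 0.1% OA, 0.02% Tween20. IC50 from one-site competition fit as affinity measure.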

[3] = molecular target: T3, human calcitonin receptor (Homo sapiens, UniProt P30988); assay: Assay (VII) binding to the human calcitonin receptor (SPA, 125I-Calcitonin); conditions: read-out: hCTR bind IC50;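 also: cell membranes coupled to SPA beads, competitive displacement read by scintillation counting, IC50 derived from a one-site competition fit as a measure of receptor affinity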
T3 construct: expressed in transfected cells
T3 sequence (P30988 25-474): T1 sequence (P30988 25-474)

[4] = molecular target: T3, human calcitonin receptor; assay: Assay (II)a functional assay, human calcitonin receptor (CRE luciferase, BHK cells);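 also: luminescence from a CRE-driven luciferase reporter, read by single photon counting after cells were exposed to test samples for 3 h at 37 °C under 5% CO2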; type: cell-based; conditions: read-out: hCTR funct. EC50
Sprague-Dawley rats = assay: Assay (XI) single subcutaneous administration, food intake monitored for 48 hours in rats; type: in vivo, rat; conditions: single subcutaneous 30 nmol/kg
Description: Assay (XI)—Effect from Single Subcutaneous Administration of Analogue on […] in Rats
Male Sprague-Dawley rats (Taconic Europe, ˜250 g at test date) were acclimatized to reversed day light cycle (lights on from 10 PM to 10 AM) and single housing in online food intake monitoring system (Ellegaard MBRose, Denmark) prior to study start. Rats were divided in groups of five and subcutaneously dosed with test compound (30 nmol/kg) and food intake was monitored for 48 hours hereafter. Data are illustrated in graphs as mean±SEM.

[5] = Table 6, human functional selectivity (hCTR EC50 / hAmylin-R EC50)

Compound	ThT pH 4.0 recovery (%) [1] [%]	Ratio hCT/hAmylin funct. [2, 5]	Plasma calcium red (%) 0-12 h (Wistar rats; single s.c., maximal reduction 0-12 h, compared to vehicle) [%]	suppression of plasma calcium level relative to vehicle (Wistar rats; single subcutaneous, over 24 hours)	IC50 (human amylin receptor) [nM]	Ratio hCT/hAmylin funct. ([2]; Table 6a, human functional selectivity (hCTR EC50 / hAmylin-R EC50), at least 5)	Ratio hCT/hAmylin funct. ([2]; Table 6i, hCTR funct. EC50 / hAmylin-R funct. EC50)	Ratio hCT/hAmylin funct. ([2]; Table 6j, hCTR funct. EC50 / hAmylin-R funct. EC50)	Ratio hCT/hAmylin funct. ([2]; Table 6k, hCTR funct. EC50 / hAmylin-R funct. EC50)	EC50 ([2]; functional assay, human amylin receptor, read-out: hAmylin-R funct. EC50) [nM]	IC50 [3] [nM]	EC50 [4] [nM]	food intake monitored over 48 hours versus vehicle (Sprague-Dawley rats)
CC[C@H](C)[C@H](NC(=O)[C@H](C)NC(=O)CNC(=O)[C@H](Cc1ccccc1)NC(=O)[C@H](CC(N)=O)NC(=O)[C@@H]1CCCN1C(=O)[C@H](CO)NC(=O)[C@H](CO)NC(=O)[C@H](Cc1c[nH]cn1)NC(=O)[C@H](CCCNC(=N)N)NC(=O)[C@H](CC(C)C)NC(=O)[C@H](Cc1ccccc1)NC(=O)[C@H](CCCCN)NC(=O)[C@H](C)NC(=O)[C@H](CC(C)C)NC(=O)[C@H](CCCNC(=N)N)NC(=O)[C@H](CCC(N)=O)NC(=O)[C@@H](NC(=O)[C@H](C)NC(=O)[C@@H]1CSSC[C@H](NC(=O)[C@@H](N)CCCCNC(=O)COCCOCCNC(=O)CC[C@H](NC(=O)CCCCCCCCCCCCCCCCCCC(=O)O)C(=O)O)C(=O)N[C@@H](CC(N)=O)C(=O)N[C@@H]([C@@H](C)O)C(=O)N[C@@H](C)C(=O)N[C@@H]([C@@H](C)O)C(=O)N1)[C@@H](C)O)C(=O)N1CCC[C@H]1C(=O)N[C@@H](CO)C(=O)N[C@@H](CO)C(=O)N[C@H](C(=O)N1CCC[C@H]1C(=O)N[C@H](C(=O)NCC(=O)N[C@@H](CO)C(=O)N[C@@H](CC(N)=O)C(=O)N[C@H](C(=O)N[C@@H](Cc1ccc(O)cc1)C(N)=O)[C@@H](C)O)C(C)C)[C@@H](C)O [Example 74] (H-K([AEEA-γGlu-C20 diacid])CNTATCATQRLAKFLRHSSPNFGAIPSSTPVGSNTY-NH2; disulfide 2-7 (inferred); N-terminus and C-terminus assumed)	87	–	–	–	–	–	–	–	–	–	–	–	–
CC[C@H](C)[C@H](NC(=O)[C@H](C)NC(=O)CNC(=O)[C@H](Cc1ccccc1)NC(=O)[C@H](CC(N)=O)NC(=O)[C@@H]1CCCN1C(=O)[C@H](CO)NC(=O)[C@H](CO)NC(=O)[C@H](Cc1c[nH]cn1)NC(=O)[C@H](CCCNC(=N)N)NC(=O)[C@H](CC(C)C)NC(=O)[C@H](Cc1ccccc1)NC(=O)[C@H](C)NC(=O)[C@H](C)NC(=O)[C@H](CC(C)C)NC(=O)[C@H](CCCNC(=N)N)NC(=O)[C@H](CCC(N)=O)NC(=O)[C@@H](NC(=O)[C@H](C)NC(=O)[C@@H]1CSSC[C@H](NC(=O)[C@H](CCCNC(=N)N)NC(=O)CNC(=O)CC[C@H](NC(=O)CCCCCCCCCCCCCCCCCCC(=O)O)C(=O)O)C(=O)N[C@@H](CC(N)=O)C(=O)N[C@@H]([C@@H](C)O)C(=O)N[C@@H](C)C(=O)N[C@@H]([C@@H](C)O)C(=O)N1)[C@@H](C)O)C(=O)N1CCC[C@H]1C(=O)N[C@@H](CO)C(=O)N[C@@H](CO)C(=O)N[C@H](C(=O)N[C@@H](CC(N)=O)C(=O)N[C@H](C(=O)NCC(=O)N1CCC[C@H]1C(=O)N[C@@H](CC(N)=O)C(=O)N[C@H](C(=O)N[C@@H](Cc1ccc(O)cc1)C(N)=O)[C@@H](C)O)C(C)C)[C@@H](C)O [Example 103] ({C20 diacid-γGlu}-GRCNTATCATQRLAAFLRHSSPNFGAIPSSTNVGPNTY-NH2; disulfide 3-8 (inferred); C-terminus assumed)	82	2.1	–	–	–	–	–	–	–	–	–	–	–
CC[C@H](C)[C@H](NC(=O)[C@H](C)NC(=O)CNC(=O)[C@H](Cc1ccccc1)NC(=O)[C@H](CC(N)=O)NC(=O)[C@@H]1CCCN1C(=O)[C@H](CO)NC(=O)[C@H](CO)NC(=O)[C@H](Cc1c[nH]cn1)NC(=O)[C@H](CCCNC(=N)N)NC(=O)[C@H](CC(C)C)NC(=O)[C@H](Cc1ccccc1)NC(=O)[C@H](CCC(=O)O)NC(=O)[C@H](C)NC(=O)[C@H](CC(C)C)NC(=O)[C@H](CCCNC(=N)N)NC(=O)[C@H](CCC(N)=O)NC(=O)[C@@H](NC(=O)[C@H](C)NC(=O)[C@@H]1CSSC[C@H](NC(=O)[C@@H](N)CCCCNC(=O)CC[C@H](NC(=O)CCCCCCCCCCCCCCCCCCC(=O)O)C(=O)O)C(=O)N[C@@H](CC(N)=O)C(=O)N[C@@H]([C@@H](C)O)C(=O)N[C@@H](C)C(=O)N[C@@H]([C@@H](C)O)C(=O)N1)[C@@H](C)O)C(=O)N1CCC[C@H]1C(=O)N[C@@H](CO)C(=O)N[C@@H](CO)C(=O)N[C@H](C(=O)N[C@@H](CC(N)=O)C(=O)N[C@H](C(=O)NCC(=O)N1CCC[C@H]1C(=O)N[C@@H](CCCNC(=N)N)C(=O)N[C@H](C(=O)N[C@@H](Cc1ccc(O)cc1)C(N)=O)[C@@H](C)O)C(C)C)[C@@H](C)O [Example 117] (H-K([γGlu-C20 diacid])CNTATCATQRLAEFLRHSSPNFGAIPSSTNVGPRTY-NH2; disulfide 2-7)	–	17.0	9	None of the example compounds at 30 nmol/kg trigger a notable suppression of the calcium level	0.163	17.0	17.0	17.0	17.0	0.376	6.3	6.38	reduces food intake in rats
